Measured values from patent US20090253634A1, “Methods and Compositions for the Treatment of Gastrointestinal Disorders” (MICROBIA, INC., priority 2005, published 2009).
Bridge positions count the residues as written; N and C are the ends. Peptide text beside a SMILES is read from it.

How the values were obtained:
aminopeptidase = molecular target: T1, aminopeptidase (Sus scrofa, UniProt P15145); assay: in vitro proteolytic stability: aminopeptidase; assay type: in vitro ADME; conditions: 37° C., up to 24 h
T1 construct: purchased Roche 102768
T1 sequence (P15145 1-963): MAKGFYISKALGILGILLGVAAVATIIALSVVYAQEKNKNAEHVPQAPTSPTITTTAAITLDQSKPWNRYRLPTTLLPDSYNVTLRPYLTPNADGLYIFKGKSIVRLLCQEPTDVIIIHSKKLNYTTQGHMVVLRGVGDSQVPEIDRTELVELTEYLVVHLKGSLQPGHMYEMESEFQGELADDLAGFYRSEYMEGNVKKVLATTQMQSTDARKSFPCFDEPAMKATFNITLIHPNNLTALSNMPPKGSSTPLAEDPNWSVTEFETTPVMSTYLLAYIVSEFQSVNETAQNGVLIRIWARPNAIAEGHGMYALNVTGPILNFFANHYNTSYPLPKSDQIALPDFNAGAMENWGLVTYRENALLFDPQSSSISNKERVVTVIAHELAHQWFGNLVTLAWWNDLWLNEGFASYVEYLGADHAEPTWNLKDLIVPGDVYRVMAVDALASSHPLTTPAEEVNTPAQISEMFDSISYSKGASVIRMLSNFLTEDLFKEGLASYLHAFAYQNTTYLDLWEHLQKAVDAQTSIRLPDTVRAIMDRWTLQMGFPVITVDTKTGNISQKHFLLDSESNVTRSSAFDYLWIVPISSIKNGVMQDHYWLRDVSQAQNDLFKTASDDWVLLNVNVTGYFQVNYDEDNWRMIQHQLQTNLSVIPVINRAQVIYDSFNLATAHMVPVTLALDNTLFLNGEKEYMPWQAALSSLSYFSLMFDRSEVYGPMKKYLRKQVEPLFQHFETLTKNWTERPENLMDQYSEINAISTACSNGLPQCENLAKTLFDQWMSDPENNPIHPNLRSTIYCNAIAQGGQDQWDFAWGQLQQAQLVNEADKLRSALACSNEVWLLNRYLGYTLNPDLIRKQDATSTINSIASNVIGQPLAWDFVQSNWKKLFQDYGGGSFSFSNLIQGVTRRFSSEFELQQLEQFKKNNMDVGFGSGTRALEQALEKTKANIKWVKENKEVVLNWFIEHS
Procedure: All samples were analyzed by LC/MS

gastrointestinal transit = assay: rat gastrointestinal transit (GIT) assay; assay type: in vivo, CD rats
Procedure: In order to determine whether the peptides increase the rate of gastrointestinal transit, the peptides and controls were tested using a murine gastrointestinal transit (GIT) assay (Moon et al. Infection and Immunity 25:127, 1979). In this assay, charcoal, which can be readily visualized in the gastrointestinal tract is administered to mice after the administration of a test compound. The distance traveled by the charcoal is measured and expressed as a percentage of the total length of the […].
Mice were fasted with free access to water for 12 to 16 hours before the treatment with peptide or control buffer. The peptides were orally administered at 1 μg/kg-1 mg/kg of peptide in buffer ([…] pH 7.5) 7 minutes before being given an oral dose of 5% Activated Carbon (Aldrich 242276-250G). Control mice were administered buffer only before being given a dose of Activated Carbon. After 15 minutes, the mice were sacrificed and their intestines from the stomach to the cecum were dissected. The total length of the intestine as well as the distance traveled from the stomach to the charcoal front was measured for each animal and the results are expressed as the percent of the total length of the intestine traveled by the charcoal front. All results are reported as the average of 10 mice±standard deviation. […] P-values are calculated using a two-sided T-Test assuming unequal variances. […]

bowel habits = assay: seven-day oral dosing study of bowel habits in humans; assay type: in vivo
Procedure: Seven daily doses of 30, 100, 300, or 1000 μg of chemically synthesized SEQ ID NO:3 were given to 48 healthy subjects. SEQ ID NO:3 or placebo (vehicle) was administered orally in 5.0 mL 50 mM phosphate buffer (pH 6.0) plus 3×20 mL water rinses and 175 mL water after at least a 10-hour fast. In each dosing group, 8 subjects were randomized to receive SEQ ID NO:3 and 4 subjects were randomized to receive placebo. […] The Mean Ease of Passage (FIG. 15d) of stools was tested for subjects treated with 30-1000 μg SEQ ID NO:3.

C[C@@H]1NC(=O)[C@@H]2CCCN2C(=O)[C@H](CC(N)=O)NC(=O)[C@@H]2CSSC[C@H](N)C(=O)N[C@H]3CSSC[C@H](NC1=O)C(=O)N[C@@H]([C@@H](C)O)C(=O)NCC(=O)N[C@H](C(=O)N[C@@H](Cc1ccc(O)cc1)C(=O)O)CSSC[C@H](NC(=O)[C@H](Cc1ccc(O)cc1)NC(=O)[C@H](CCC(=O)O)NC3=O)C(=O)N2 [SEQ ID NO:3] (H-CCEYCCNPACTGCY-OH; disulfide 1-6, 2-10, 5-13; N-terminus and C-terminus assumed)
Cleavage of SEQ ID NO: 3 by proteolytic substance (aminopeptidase): not detectable
intestinal transit, dose dependence (gastrointestinal transit; female rats, similar effects in male rats, FIG. 4e): increases in a dose dependent manner
intestinal transit (gastrointestinal transit; rat GIT assay, FIG. 4d): intestinal transit increases
Mean Ease of Passage of stools, baseline versus treatment, versus placebo (bowel habits; 1000 μg dose group): greatest difference in baseline versus treatment values
Mean Stool Weight (bowel habits; seven daily oral doses 30-1000 μg, higher doses): increase in Mean Stool Weight
Mean Stool Frequency (stools per week) (bowel habits; seven daily oral doses 30-1000 μg, higher doses, healthy subjects): increase in Mean Stool Frequency score
